The values below come from US12180252B2, “Peptide derived from PEP27 peptide and uses thereof” (priority 2021, dated 2024).

Series [1] relates to S. aureus CCARM3089. Kind of series: microbe, parasite or virus in culture. To be noted: S. aureus CCARM3089, antibiotics-tolerant; 37° C., 18 hours. The gist of the method:
(§1)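 Peptide growth inhibition measured by twofold dilution against mid-log bacteria (2×10^4 cells/100 μl), 37° C, 18 hours; endpoint was absence of cell division. Meropenem, ceftazidime, ceftriaxone and vancomycin were run in parallel.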

The test system of series [2] is S. aureus CCARM3090. Nature of the series: microbe, parasite or virus in culture. The conditions noted are these: S. aureus CCARM3090, antibiotics-tolerant; 37° C., 18 hours. The procedure, abridged: as §1
Series [3] relates to S. aureus CCARM3518. Kind of series: microbe, parasite or virus in culture. To be noted: S. aureus CCARM3518, antibiotics-tolerant; 37° C., 18 hours. The gist of the method:
as §1

For series [4], the system named is P. aeruginosa 4891. Nature of the series: microbe, parasite or virus in culture. The gist of the method:
as §1

The test system of series [5] is P. aeruginosa 4007. Nature of the series: microbe, parasite or virus in culture. The procedure, abridged: as §1
Series [6] deals with P. aeruginosa ATCC15692. Kind of series: microbe, parasite or virus in culture. The procedure, abridged:
as §1

Series [7] deals with HaCaT and MCF-7 cells. Nature of the series: MTT cytotoxicity. To be noted: for toxicity relative to the antimicrobial concentration range: mouse erythrocytes and human cells. In kind it is cell-based, human. The method, then: Specifically, Thiazolyl blue tetrazolium bromide (MTT, Merck KGaA) was used to determine the cytotoxicity of PEP27 and its analogs against HaCaT (human keratinocyte […], n=4 per condition) and MCF-7 (human breast adenocarcinoma, n=3 per condition) cells. The cells were cultured in Dulbecco's modified Eagle's medium (DMEM) supplemented with 10 heat-inactivated fetal bovine serum (FBS, Gibco, Grand Island, NY, USA) and 1% penicillin-streptomycin (Gibco) at a density of 2×10^4 cells/well (96-well plate). Peptides were then added at various concentrations and incubated for 24 h at 37° C., after which MTT (final concentration, 0.5 mg/mL) was added to each well and incubated for 4 h. The formazan product was solubilized in DMSO, and the absorbance at 570 nm was measured to […] cytotoxicity. Cells treated with 0.1% Triton X-100 were used as the 100% cytotoxic control sample.

The subject of series [8] is E. coli CCARM1229. In kind it is cell-based, Escherichia coli. To be noted: 37° C., 24 hours.
Series [9] has as its system S. aureus CCARM3089. It is filed as cell-based, Staphylococcus aureus. The conditions noted are these: 37° C., 24 hours. From the text: (§2) Biofilms may form on a wide variety of surfaces, including living or dead surfaces, and biofilm-associated bacteria are more tolerant to antibiotics than planktonic bacterial cells, making them antibiotic-resistant. To assess the efficacy of PEP27-2 against biofilms, we observed the anti-biofilm activity of PEP27-2 in S. aureus (ATCC 25923 and CCARM 3090), E. coli (ATCC 25922 and CCARM 1238), and P. aeruginosa (ATCC 27853 and 4891).
(§3) Specifically, among the strains listed in Table 3 above, Staphylococcus aureus, E. coli and Pseudomonas erujinosa, respectively, were cultured in each medium to a mid-log phase, diluted to a cell concentration of 5×10^4 cells/100 μl, and then, inoculated into a micro-plate (SPL). Then, PEP27-2 peptide was diluted 1/10 times with 10 mM PBS solution (pH 7.2) and 10 μl of the solution was added to each well, followed by incubation at 37° C. for 24 hours. After completely removing the supernatant, the solution was fixed with 100% methanol for 15 minutes, stained with a crystal violet dye solution for 1 hour, washed 3 times, and then dissolved in 95% ethanol, followed by measuring the absorbance at a wavelength of 595 nm using a micro titration plate reader, thereby determining a biofilm minimal inhibitory concentration value for each strain.

Series [10] relates to S. aureus ATCC29213. In kind it is cell-based, Staphylococcus aureus.
Source text: as §2, §3

Series [11] concerns S. aureus CCARM3090. It is filed as cell-based, Staphylococcus aureus. The conditions noted are these: 37° C., 24 hours.
Source text: as §2, §3

Series [12] relates to S. aureus CCARM3518. In kind it is cell-based, Staphylococcus aureus. To be noted: 37° C., 24 hours.
Source text: as §2, §3

Series [13] concerns S. aureus ATCC25923. In kind it is cell-based, Staphylococcus aureus.
Source text: as §2, §3

For series [14], the system named is E. coli. Kind of series: Flow cytometry, propidium iodide staining. It is filed as cell-based, Escherichia coli. The conditions noted are these: E. coli, flow cytometry. As to the method: In order to confirm whether the peptide prepared by the method of above 1 acts on the bacterial membrane, PEP27-2 peptide having better antimicrobial activity than the parental peptide was analyzed through flow cytometry.
Thereafter, the supernatant was removed using a centrifuge (10,000 rpm) and stained with propidium iodide (PI) at a concentration of 10 μg/ml at 4° C. for 30 minutes. Then, the unbound propidium iodide (PI) was removed using the centrifuge, and 1 ml of physiological saline (PBS) was added to remove agglomeration of the cells. Thereafter, effects of the peptide on the bacterial membrane were determined using a Bechman flow cytometer.
Background: Flow cytometry measures light scatter and fluorescence of single cells or particles in a stream.

Series [15] concerns E. coli and Staphylococcus aureus cells. Kind of series: Scanning electron microscope analysis of bacterial membrane. In kind it is cell-based, Escherichia coli. To be noted: at MIC, 37° C., 1 hour. The method, then:
In order to confirm whether the synthetic peptides of the present invention prepared by the method of above 1 would damage the bacterial cell membrane, it was investigated through a scanning electron microscope.
As a control, a strain not treated with peptide was used. After incubation, the cells were recovered, treated with 2.5% glutaraldehyde at 4° C. for 18 hours, and washed twice with PBS buffer solution. The fixed cells were dehydrated for 10 minutes using 100% ethanol and diluted ethanol (50%, 70%, 90% and 100%) in sequential order, and then the samples were dried and coated with platinum, followed by observation through a low vacuum scanning electron microscope.

Converted amounts (≈) assume the structure as drawn. Where two headings read alike, the source gives them in different places. Where a SMILES comes first, the peptide text is derived from it.

Regarding `CSCC[C@H](N)C(=O)N[C@@H](Cc1c[nH]c2ccccc12)C(=O)N[C@@H](CCCCN)C(=O)N[C@@H](Cc1c[nH]c2ccccc12)C(=O)N[C@@H](Cc1ccccc1)C(=O)N[C@@H](Cc1c[nH]cn1)C(=O)N[C@@H](CC(N)=O)C(=O)N[C@H](C(=O)N[C@@H](CC(C)C)C(=O)N[C@@H](CO)C(=O)N[C@@H](Cc1c[nH]c2ccccc12)C(=O)NCC(=O)N[C@@H](Cc1c[nH]c2ccccc12)C(=O)N[C@@H](CC(C)C)C(=O)N[C@@H](CC(C)C)C(=O)N[C@@H](C)C(=O)N[C@@H](CC(=O)O)C(=O)N[C@@H](CCCCN)C(=O)N[C@@H](CCCNC(=N)N)C(=O)N1CCC[C@H]1C(=O)N[C@@H](C)C(=O)N[C@@H](CCCNC(=N)N)C(=O)N[C@@H](CC(=O)O)C(=O)N[C@@H](Cc1ccc(O)cc1)C(=O)N[C@@H](CC(N)=O)C(=O)N[C@@H](CCCNC(=N)N)C(=O)N[C@@H](CCCCN)C(N)=O)C(C)C` [PEP27-2] (H-MWKWFHNVLSWGWLLADKRPARDYNRK-NH2), the Minimal inhibitory concentration in series [1] was 4 µM (≈ 13.9 µg/mL); in [2] it was 4 µM (≈ 13.9 µg/mL); in series [3], 4 µM (≈ 13.9 µg/mL); in series [4] (4891, 18 h), 4 µM (≈ 13.9 µg/mL); in [5] (4007, 18 h) it was 4 µM (≈ 13.9 µg/mL); in [6] (ATCC15692, 18 h) it was 4 µM (≈ 13.9 µg/mL). Moreover, in [7] (100 μM, 24 h, MTT, HaCaT and MCF-7 cells), the cell viability was 19%-23%. Besides, in series [7], the “toxicity relative to the antimicrobial concentration range” value was “not toxic within the range of antimicrobial activity or 4×MIC concentration”. Further, the “Biofilm minimal inhibitory concentration” value in [8] was determined as 8 µM; in [9], 4 µM; in series [10] (ATCC29213, 24 h), 4 µM; in series [11] it was 4 µM; in [12], 4 µM; in [13] (ATCC25923, 24 h), 4 µM. The “maximum percent biofilm inhibition” value in [13] (ATCC25923) was 83.4%.

On to `CC[C@H](C)[C@H](NC(=O)CN)C(=O)NCC(=O)N[C@@H](C)C(=O)N[C@H](C(=O)N[C@@H](CC(C)C)C(=O)N[C@@H](CCCCN)C(=O)N[C@H](C(=O)N[C@@H](CC(C)C)C(=O)N[C@H](C(=O)N[C@H](C(=O)NCC(=O)N[C@@H](CC(C)C)C(=O)N1CCC[C@H]1C(=O)N[C@@H](C)C(=O)N[C@@H](CC(C)C)C(=O)N[C@H](C(=O)N[C@@H](CO)C(=O)N[C@@H](Cc1c[nH]c2ccccc12)C(=O)N[C@H](C(=O)N[C@@H](CCCCN)C(=O)N[C@@H](CCCNC(=N)N)C(=O)N[C@@H](CCCCN)C(=O)N[C@@H](CCCNC(=N)N)C(=O)N[C@@H](CCC(N)=O)C(=O)N[C@@H](CCC(N)=O)C(N)=O)[C@@H](C)CC)[C@@H](C)CC)[C@@H](C)O)[C@@H](C)O)C(C)C)C(C)C` [Melittin, reference compound], for which the Minimal inhibitory concentration in series [1] was determined as 2 µM (≈ 5.69 µg/mL); in [2], 4 µM (≈ 11.4 µg/mL); in series [3] it was 2 µM (≈ 5.69 µg/mL); in series [4] (P. aeruginosa 4891, antibiotics-tolerant, 37° C., 18 hours), 2 µM (≈ 5.69 µg/mL); in [5] (P. aeruginosa 4007, antibiotics-tolerant, 37° C., 18 hours), 2 µM (≈ 5.69 µg/mL); in series [6] (P. aeruginosa ATCC15692, Gram-negative, 37° C., 18 hours), 2 µM (≈ 5.69 µg/mL). The “toxicity relative to the antimicrobial concentration range” value in series [7] is listed as “begins to show toxicity within the range of antibacterial activity”. The “Biofilm minimal inhibitory concentration” value in series [8] is 4 µM; in series [9], 4 µM; in series [10] (S. aureus ATCC29213, 37° C., 24 hours), 4 µM; in series [11], 4 µM; in series [12], 8 µM; in series [13] (S. aureus ATCC25923, 37° C., 24 hours), 4 µM. The “bacterial membrane destruction” value in series [14] is recorded as “found to have cell membrane destruction ability”. The “bacterial cell membrane damage by SEM” value in series [15] was “significant membrane damage”.
